Measurements taken from ChEMBL document CHEMBL1806377, “Synthesis and evaluation of a radioiodinated trisaccharide derivative as a synthetic substrate for a sensitive N-acetylglucosaminyltransferase V radioassay” (Bioorg Med Chem, 2011).

How the values were obtained:
Conditions in all cases: tested as the 125I-labelled form
[1] = molecular target: T1, Alpha-1,6-mannosylglycoprotein 6-beta-N-acetylglucosaminyltransferase A (Rattus norvegicus) (UniProt Q08834); assay: Activity at Wistar rat liver GnT-V assessed per mg of protein after 4 hrs by radio HPLC analysis
T1 sequence (whole entry): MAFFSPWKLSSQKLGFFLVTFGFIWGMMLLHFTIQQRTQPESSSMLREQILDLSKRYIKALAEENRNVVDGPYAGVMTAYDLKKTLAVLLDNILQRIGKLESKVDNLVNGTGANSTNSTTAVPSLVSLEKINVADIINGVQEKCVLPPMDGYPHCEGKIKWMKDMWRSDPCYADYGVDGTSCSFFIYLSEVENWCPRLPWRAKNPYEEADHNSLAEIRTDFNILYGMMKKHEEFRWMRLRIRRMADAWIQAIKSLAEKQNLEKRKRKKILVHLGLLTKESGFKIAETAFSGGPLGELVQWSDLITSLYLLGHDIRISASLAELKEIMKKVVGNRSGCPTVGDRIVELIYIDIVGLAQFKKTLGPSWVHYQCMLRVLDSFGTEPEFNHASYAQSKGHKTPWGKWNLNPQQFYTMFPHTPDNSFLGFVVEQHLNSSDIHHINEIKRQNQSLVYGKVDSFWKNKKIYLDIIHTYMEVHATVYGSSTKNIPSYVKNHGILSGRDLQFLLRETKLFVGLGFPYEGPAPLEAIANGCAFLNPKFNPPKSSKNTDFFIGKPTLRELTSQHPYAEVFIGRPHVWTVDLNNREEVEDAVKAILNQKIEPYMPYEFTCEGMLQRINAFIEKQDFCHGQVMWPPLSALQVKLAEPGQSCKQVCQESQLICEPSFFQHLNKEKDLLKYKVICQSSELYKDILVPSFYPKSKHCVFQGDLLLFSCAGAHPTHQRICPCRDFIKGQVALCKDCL

[2] = molecular target: T1, Alpha-1,6-mannosylglycoprotein 6-beta-N-acetylglucosaminyltransferase A (Rattus norvegicus); assay: Activity at Wistar rat intestine GnT-V assessed per mg of protein after 4 hrs by radio HPLC analysis
[3] = molecular target: T1, Alpha-1,6-mannosylglycoprotein 6-beta-N-acetylglucosaminyltransferase A (Rattus norvegicus); assay: Activity at Wistar rat heart GnT-V assessed per mg of protein after 4 hrs by radio HPLC analysis
[4] = molecular target: T1, Alpha-1,6-mannosylglycoprotein 6-beta-N-acetylglucosaminyltransferase A (Rattus norvegicus); assay: Activity at Wistar rat brain GnT-V assessed per mg of protein after 4 hrs by radio HPLC analysis
[5] = molecular target: T1, Alpha-1,6-mannosylglycoprotein 6-beta-N-acetylglucosaminyltransferase A (Rattus norvegicus); assay: Activity at Wistar rat spleen GnT-V assessed per mg of protein after 4 hrs by radio HPLC analysis
[6] = molecular target: T1, Alpha-1,6-mannosylglycoprotein 6-beta-N-acetylglucosaminyltransferase A (Rattus norvegicus); assay: Activity at Wistar rat lung GnT-V assessed per mg of protein after 4 hrs by radio HPLC analysis
[7] = molecular target: T1, Alpha-1,6-mannosylglycoprotein 6-beta-N-acetylglucosaminyltransferase A (Rattus norvegicus); assay: Activity at Wistar rat kidney GnT-V assessed per mg of protein after 4 hrs by radio HPLC analysis
[8] = molecular target: T1, Alpha-1,6-mannosylglycoprotein 6-beta-N-acetylglucosaminyltransferase A (Rattus norvegicus); assay: Activity at Wistar rat serum GnT-V assessed per mg of protein after 4 hrs by radio HPLC analysis
[9] = molecular target: T1, Alpha-1,6-mannosylglycoprotein 6-beta-N-acetylglucosaminyltransferase A (Rattus norvegicus); assay: Activity at Wistar rat stomach GnT-V assessed per mg of protein after 4 hrs by radio HPLC analysis

- Activity [1]: 48 pmol/h
- Activity [2]: 774 pmol/h
- Activity [3]: 31 pmol/h
- Activity [4]: 261 pmol/h
- Activity [5]: 244 pmol/h
- Activity [6]: 179 pmol/h
- Activity [7]: 671 pmol/h
- Activity [8]: 1280 pmol/h
- Activity [9]: 116 pmol/h
SMILES: CC(=O)N[C@H]1[C@H](O[C@@H]2[C@@H](OC[C@H]3O[C@@H](OCCc4ccc(I)cc4)[C@H](O)[C@@H](O)[C@@H]3O)O[C@H](CO)[C@@H](O)[C@@H]2O)O[C@H](CO)[C@@H](O)[C@@H]1O
